What all share (type): cell-based
Data set [1] has as its system Respiratory syncytial virus recombinant with luciferase (RSV-Luc5). The data set can be described thus: microbe, parasite or virus in culture. To be noted: human respiratory syncytial virus, HEp-2, 72 h, read-out: EC50 RSVFluc-Hep2 384, HEp-2 cells, RSV-Luc5, MOI=0.5, 3 days, 384 well, One-Glo; Table 1.
The subject of data set [2] is SARS-CoV-2. The data set is described as follows: SARS-CoV-2 antiviral assay (A549-hACE2, Nano luciferase). To be noted: A549-hACE2 cells, SARS-CoV2-Nano, MOI 0.025, 48 h.
Data set [3] relates to Respiratory syncytial virus (RSV) strain A2. The data set can be described thus: RSV antiviral assay (HEp-2, 96 well). The following applies: Table 1.
The test system of data set [4] is Recombinant respiratory syncytial virus expressing the firefly luciferase protein (RSV-Fluc). The data set can be described thus: microbe, parasite or virus in culture. The following applies: Table 4.
Data set [5] is described as follows: CC50 assay (cytopathology in HEp-2 cells). The following applies: human, HEp-2 cells, 4 days, CellTiter-Glo; Table 1; read-out: RSV CC50. The procedure, abridged:
(§1)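 HEp-2 cells (3×10^3/well) received three-fold compound dilutions and were incubated 4 days at 37 °C. Viability was read by CellTiter-Glo luminescence, normalised to untreated (100%) and 5 µM puromycin (0%) controls. CC50 is the concentration reducing viability by 50%, from non-linear regression.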

Data set [6] has as its system Respiratory syncytial virus (RSV) strain A2. The data set can be described thus: Hep-2 RSV2 384-well assay (EC50-HEP2-384). The following applies: HEp-2 cells, RSV A2, MOI=4, 4 days, Table 1.
For data set [7], the system named is HEp-2 cells. The data set can be described thus: CC50 assay (cytopathology in HEp-2 cells). To be noted: HEp-2 cells, 4 days, CellTiter-Glo; Table 1; read-out: RSV CC50. The procedure, abridged: as §1
Where [8] appears, read: Severe acute respiratory syndrome coronavirus 2, 48 h, Table 1, read-out: SARS-CoV-2 EC50.
The mark [9] stands for this setting: Severe acute respiratory syndrome coronavirus 2, 48 h, Table 4, read-out: EC50 SARS CoV2.
Where [10] appears, read: human respiratory syncytial virus, HEp-2, 96 h, read-out: EC50-RSV-HEP-2-96, HEp-2 cells, RSV A2, MOI=4, 4 days, 96 well, CellTiter-Glo.
[11] abbreviates: human respiratory syncytial virus, NHBE, 72 h, read-out: EC50 RSVFluc NHBE 96, NHBE cells, RSV-Fluc, MOI of 0.1, three days, 96 well.
The mark [12] stands for this setting: human respiratory syncytial virus, HEp-2, 96 h.
The mark [13] stands for this setting: read-out: EC50 RSVFluc NHBE 96, NHBE cells, RSV-Fluc, MOI of 0.1, three days, 96 well.

Where two headings read alike, the source gives them in different places.

For `CCC(CC)COC(=O)[C@H](C)NP(=O)(OC[C@H]1O[C@@](C#N)(c2ccc3c(N)ncnn23)[C@H](O)[C@@H]1O)Oc1ccc(C(C)(C)C)cc1` (mixture of isomers) [Example 13, 2-ethylbutyl (2S)-2-[[[(2R,5R)-5-(4-aminopyrrolo[2,1-f][1,2,4]triazin-7-yl)-5-cyano-3,4-dihydroxy-tetrahydrofuran-2-yl]methoxy-(4-tert-butylphenoxy)phosphoryl]amino]propanoate], the EC50 in data set [1] is 20.1 nM; in data set [2] (setting [8]), 88.9 nM; in data set [2] (setting [9]), 319 nM; in data set [3] (setting [10]), 34.5 nM; in data set [4] (setting [11]), 2.92 nM; in data set [6] (setting [12]) it was 58.8 nM. The CC50 at 4 days in data set [5] was 3800 nM.
As for `CCC(CC)COC(=O)[C@H](C)NP(=O)(OC[C@H]1O[C@@](C#N)(c2ccc3c(N)ncnn23)[C@H](O)[C@@H]1O)Oc1cc(C)ccc1C(C)C` (single isomer, unassigned) [Example 26a], in data set [3] (setting [10]), the EC50 stood at 1160 nM. Also, the CC50 in data set [7] was over 45000 nM.
As to `CCC(CC)COC(=O)[C@H](C)NP(=O)(OC[C@H]1O[C@@](C#N)(c2ccc3c(N)ncnn23)[C@H](O)[C@@H]1O)Oc1cc(C)ccc1C(C)C` (single isomer, unassigned) [Example 26b], in data set [3] (read-out: EC50-RSV-HEP-2-96, HEp-2 cells, RSV A2, MOI=4, 4 days, 96 well, CellTiter-Glo), the EC50 is 603 nM. For the same compound, the cytotoxic concentration (CC50) in data set [7] was 2400 nM.
On to `CCC(CC)COC(=O)[C@H](C)N[P@](=O)(OC[C@H]1O[C@@](C#N)(c2ccc3c(N)ncnn23)[C@H](OC(C)=O)[C@@H]1OC(C)=O)Oc1ccccc1` [Example 2, (2R,3R,4R,5R)-2-(4-aminopyrrolo[2,1-f][1,2,4]triazin-7-yl)-2-cyano-5-((((S)—(((S)-1-(2-ethylbutoxy)-1-oxopropan-2-yl)amino)(phenoxy)phosphoryl)oxy)methyl) tetrahydrofuran-3,4-diyl Diacetate], for which the EC50 in data set [2] (setting [9]) is 102 nM; in data set [3] (setting [10]), 84.4 nM; in data set [4] (setting [11]), 4.53 nM. The CC50 at 4 days in data set [5] stood at 8410 nM.
Consider `CCC(=O)O[C@H]1[C@@H](OC(=O)CC)[C@](C#N)(c2ccc3c(N)ncnn23)O[C@@H]1CO[P@@](=O)(N[C@@H](C)C(=O)OCC(CC)CC)Oc1ccccc1` [Example 3, (2R,3R,4R,5R)-2-(4-aminopyrrolo[2,1-f][1,2,4]triazin-7-yl)-2-cyano-5-((((S)—(((S)-1-(2-ethylbutoxy)-1-oxopropan-2-yl)amino)(phenoxy)phosphoryl)oxy)methyl) tetrahydrofuran-3,4-diyl Dipropionate], for which the EC50 in data set [1] was determined as 18.3 nM; in data set [2] (setting [8]) it was 113 nM; in data set [2] (setting [9]) it was 129 nM; in data set [3] (setting [10]), 44.1 nM; in data set [4] (setting [11]), 5.55 nM. In data set [5], the cytotoxic concentration (CC50) at 4 days was found to be 5820 nM.
As to `CCC(CC)COC(=O)[C@H](C)NP(=O)(OC[C@H]1O[C@@](C#N)(c2ccc3c(N)ncnn23)[C@H](OC(=O)C(C)C)[C@@H]1OC(=O)C(C)C)Oc1ccc(C(C)(C)C)cc1` (stereo partly shown) [Example 14], the EC50 in data set [2] (setting [9]) was 186 nM; in data set [3] (setting [10]) it was 29 nM; in data set [4] (setting [11]), 3.72 nM. Moreover, in data set [5], the CC50 at 4 days came out at 2730 nM.
Take `CCOC(=O)[C@H](C)NP(=O)(OC[C@H]1O[C@@](C#N)(c2ccc3c(N)ncnn23)[C@H](OC(=O)C(C)C)[C@@H]1OC(=O)C(C)C)Oc1ccc(C(C)(C)C)cc1` (stereo partly drawn) [Example 18, (2R,3R,4R,5R)-2-(4-aminopyrrolo[2,1-f][1,2,4]triazin-7-yl)-5-((((4-(tert-butyl)phenoxy)(((S)-1-ethoxy-1-oxopropan-2-yl)amino)phosphoryl)oxy)methyl)-2-cyanotetrahydrofuran-3,4-diyl bis(2-methylpropanoate)]: the EC50 in data set [2] (setting [9]) is 210 nM; in data set [3] (setting [10]), 7.75 nM; in data set [4] (setting [11]), 6.69 nM; in data set [6] (setting [12]) it was 83.4 nM. Also, the CC50 at 4 days in data set [5] came to 2620 nM.
Turning to `CC(C)C(=O)O[C@H]1[C@@H](OC(=O)C(C)C)[C@](C#N)(c2ccc3c(N)ncnn23)O[C@@H]1COP(=O)(N[C@@H](C)C(=O)OC1CCC1)Oc1ccccc1` (stereo partly drawn) [Example 21, (2R,3R,4R,5R)-2-(4-Aminopyrrolo[2,1-f][1,2,4]triazin-7-yl)-2-cyano-5-((((((S)-1-cyclobutoxy-1-oxopropan-2-yl)amino)(phenoxy)phosphoryl)oxy)methyl) tetrahydrofuran-3,4-diyl bis(2-methylpropanoate)], the EC50 in data set [1] worked out at 29.4 nM; in data set [2] (setting [8]) it was 123 nM; in data set [2] (setting [9]), 234 nM; in data set [3] (setting [10]), 19.8 nM; in data set [4] (setting [13]) it was 5.36 nM; in data set [6], 58.8 nM. In data set [5], the CC50 at 4 days stood at 3110 nM.
`CCC(CC)COC(=O)[C@H](C)N[P@](=O)(OC[C@H]1O[C@@](C#N)(c2ccc3c(=N)n(COP(=O)(O)O)cnn23)[C@H](O)[C@@H]1O)Oc1ccccc1` [Example 28, 2-Ethylbutyl ((S)-(((2R,3S,4R,5R)-5-cyano-3,4-dihydroxy-5-(4-imino-3-((phosphonooxy)methyl)-3,4-dihydropyrrolo[2,1-f][1,2,4]triazin-7-yl)tetrahydrofuran-2-yl)methoxy)(phenoxy)phosphoryl)-L-alaninate]: the 50% effective concentration (EC50) in data set [1] came out at 21.5 nM; in data set [2] (setting [9]) it was 1620 nM; in data set [3] (setting [10]), 31 nM; in data set [4] (setting [11]), 35 nM. Also, the CC50 at 4 days in data set [5] was determined as 7450 nM.
As to `C[C@H](NP(=O)(OC[C@H]1O[C@@](C#N)(c2ccc3c(N)ncnn23)[C@H](O)[C@@H]1O)Oc1ccc(C(C)(C)C)cc1)C(=O)OC1CC2(CCC2)C1` (stereo partly drawn) [Example 29, Spiro[3.3]heptan-2-yl (2S)-2-[[[(2R,3S,4R,5R)-5-(4-aminopyrrolo[2,1-f][1,2,4]triazin-7-yl)-5-cyano-3,4-dihydroxy-tetrahydrofuran-2-yl]methoxy-(4-tert-butylphenoxy)phosphoryl]amino]propanoate], the EC50 in data set [1] was found to be 36.9 nM; in data set [2] (Table 4, read-out: EC50 SARS CoV2), 123 nM; in data set [2] (setting [8]), 65.1 nM; in data set [3] (setting [10]) it was 10.7 nM; in data set [4] (setting [11]) it was 3.93 nM; in data set [6] (setting [12]), 62.2 nM. In data set [5], the CC50 at 4 days is 2650 nM.
With `CC(=O)O[C@H]1[C@@H](OC(C)=O)[C@](C#N)(c2ccc3c(N)ncnn23)O[C@@H]1COP(=O)(N[C@@H](C)C(=O)OC1CC2(CCC2)C1)Oc1ccc(C(C)(C)C)cc1` (stereo partly drawn) [Example 30, Spiro[3.3]heptan-2-yl (2S)-2-[[(4-tert-butylphenoxy)-[[(2R,3R,4R,5R)-3,4-diacetoxy-5-(4-aminopyrrolo[2,1-f][1,2,4]triazin-7-yl)-5-cyano-tetrahydrofuran-2-yl]methoxy]phosphoryl]amino]propanoate], the EC50 was 27.1 nM in data set [1]; 202 nM in data set [2] (setting [9]); 7.3 nM in data set [3] (setting [10]); 4.49 nM in data set [4] (setting [13]); 39.7 nM in data set [6] (setting [12]). Also, in data set [5], the CC50 at 4 days came out at 2310 nM.

The record behind these values is patent publication US12404289B2 (Gilead Sciences, Inc., priority 2020, dated 2025).
